Experimental data published in patent US12268702B2, “Antitumor pharmaceutical composition comprising azvudine and chemotherapeutic agent” (HENAN GENUINE BIOTECH CO., LTD., priority 2023, dated 2025).

How the values were obtained:
Assay type in all cases: in vivo
[1] = system: Colo 205 human colon cancer model; experiment: Colo 205 human colon cancer subcutaneous xenograft tumor model
Protocol: Experimental animals were 68 (48 plus 20 spare mice) BALB/c female nude mice, 7-8 weeks old (the age of mice at the time of tumor cell inoculation) and weighing 15.7-20.7 g, which were purchased from Beijing VitalRiver Experimental Animal Technology Co., Ltd. Breeding environment was SPF grade. The experimental animals were all kept in an independent ventilated box with constant temperature and humidity. The temperature of the breeding room was 20-26° C., the humidity was 40-70%. The breeding room was ventilated 10-20 times per hour. The alternating time of day and night was 12 h/12 h. The mice were continuously supplied with cobalt 60 radiation sterilized mouse complete pellet feed, and had free access to the feed. The mice drank tap water (available after sterilization with high-pressure steam), which was continuously supplied using a water-drinking bottle, and had free access to water. The mouse box was a polysulfone mouse box, which was used after sterilization under high pressure, with a size of 325 mm×210 mm×180 mm.
Colo 205 cells were cultured in RPMI1640 medium containing 10% fetal bovine serum. Colo 205 cells in the exponential growth phase were collected, resuspended in PBS to an appropriate concentration and mixed with Matrigel at a ratio of 1:1. The resulting mixture was used for subcutaneous inoculation of tumor in mice. 5×10^6 Colo 205 cells were subcutaneously inoculated on the right side of female mice. The day of inoculation was defined as Day 0. When the average tumor volume reached 110.26 mm^3, the mice were randomly divided into groups according to tumor size.
Relative tumor proliferation rate, T/C %, refers to the percentage value of the relative tumor volume or tumor weight of the treatment group and the control group at a certain time point, which was calculated as follows:
T/C %=TRTV/CRTV×100% (TRTV: the average RTV of the treatment group; CRTV: the average RTV of the vehicle control group; RTV=Vt/V0, where V0 is the tumor volume of the animal when grouped, and Vt is the tumor volume of the animal after treatment); • or T/C %=TTW/CTW×100% (TTW: the average tumor weight of the treatment group at the end of the experiment; CTW: the average tumor weight of the vehicle control group at the end of the experiment). • Relative tumor inhibition rate, TGI (%), was calculated according to the formula as follows: TGI %=(1−T/C)×100%. (T and C are the relative tumor volumes (RTV) or tumor weights (TW) of the treatment group and the control group at a specific time point).

[2] = system: Daudi xenograft tumor model; experiment: Human Burkitt's lymphoma cell Daudi subcutaneous xenograft tumor model; details: combination 1 + 50 mg/kg; for Tumor volume (mm^3) on the 27th day: CB 17 SCID mice, QD x 4 weeks, azvudine 1 mg/kg p.o., cyclophosphamide 50 mg/kg i.p.
Protocol: Human Burkitt's lymphoma cells Daudi (Cat. No.: DSMZ-ACC129) were in vitro suspended and cultured in RPMI 1640 medium containing 10% fetal bovine serum, 2 mM glutamine, 100 U/mL penicillin and 100 μg/mL streptomycin, in a 37° C. and 5% CO2 incubator. When the cell saturation achieved 80%-90% and the cell number reached the requirement, the cells were collected, counted and inoculated.
0.2 mL (10×10^6) of Daudi cells (added with Matrigel at a volume ratio of 1:1) were subcutaneously inoculated on the right back of each mouse. The grouping administration was started when the average tumor volume reached about 100 mm^3.
The changes of tumor volume and tumor weight in each group after administration of test drugs for treating CB 17 SCID mice with Daudi cell subcutaneous xenograft tumor are shown in Table 8 and Table 9 respectively.

[3] = system: MOLT4 xenograft tumor model; experiment: Human acute lymphoblastic leukemia MOLT4 cell subcutaneous xenograft tumor model
Protocol: Human acute lymphoblastic leukemia cells MOLT4 (Cat. No.: ECACC-85011413) were in vitro suspended and cultured in RPMI 1640 medium containing 10% fetal bovine serum, 100 U/mL penicillin and 100 μg/mL streptomycin, in a 37° C. and 5% CO2 incubator. When the cell saturation achieved 80%-90% and the cell number reached the requirement, the cells were collected, counted and inoculated.
0.2 mL (10×10^6) of MOLT4 cells (added with Matrigel at a volume ratio of 1:1) were subcutaneously inoculated on the right back of each mouse. The grouping administration was started when the average tumor volume reached about 148 mm^3.
The changes of tumor volume and tumor weight in each group after administration of test drugs for treating SCID Beige mice with MOLT4 cell subcutaneous xenograft tumor are shown in Table 10 and Table 11.

[4] = system: A2058 xenograft tumor model; experiment: Human melanoma A2058 cell subcutaneous xenograft tumor model; details: azvudine 1 mg/kg, dacarbazine 60 mg/kg, combination 1 + 60 mg/kg
Protocol: Human melanoma cells A2058 (Cat. No.: CRL-11147) were cultured in vitro as a monolayer in DMEM medium containing 10% fetal bovine serum, 100 U/mL penicillin and 100 μg/mL streptomycin, in a 37° C. and 5% CO2 incubator. The cells were routinely digested with trypsin-EDTA and passaged twice a week. When the cell saturation reached 80%-90% and the cell number achieved the requirement, the cells were collected, counted and inoculated.
0.2 mL (5×10^6) of A2058 cells were added with Matrigel, and the mixture was subcutaneously inoculated on the right back of each mouse. The grouping administration was started when the average tumor volume reached about 136 mm^3.

[5] = based on tumor volume, 25th day after inoculation, p.o. QD x 3 weeks, azvudine 1 mpk, capecitabine 400 mpk, combination 1 + 400 mpk
[6] = based on tumor weight, azvudine 1 mpk, capecitabine 400 mpk, combination 1 + 400 mpk
[7] = based on tumor volume, 27th day, azvudine 1 mg/kg, cyclophosphamide 50 mg/kg
[8] = 28th day after start of administration, azvudine 1 mg/kg
[9] = based on tumor volume, 28th day, azvudine 2 mg/kg in Table 10, cyclophosphamide 50 mg/kg, combination 1 + 50 mg/kg
[10] = based on tumor volume, 14th day

## [N-]=[N+]=N[C@]1(CO)O[C@@H](n2ccc(N)nc2=O)[C@@H](F)[C@@H]1O [Azvudine, azvudine]
[1]; 25th day after inoculation (20th day after grouping), BALB/c nude mice, p.o. QD x 3 weeks, azvudine 1 mpk, capecitabine 400 mpk, combination 1 + 400 mpk
  Tumor volume: 985.14 ± 108.58(6)
[1]; 25th day after tumor inoculation (20th day after grouping), azvudine 1 mg/kg, capecitabine 400 mg/kg, combination 1 + 400 mg/kg
  average tumor volume: 985.14 mm^3
[1]; [5]
  T/C (%): 67.57%
  TGI (%): 32.43%
[1]; [6]
  T/C (%): 28.19%
  TGI: 71.81
[1]; end of experiment, p.o. QD x 3 weeks, azvudine 1 mpk, capecitabine 400 mpk, combination 1 + 400 mpk
  Tumor weight (mg): 986.10 ± 107.78(6) mg
[2]; 27th day of administration
  Tumor volume (mm^3) on the 27th day: 909 ± 120 mm^3
[2]; 27th day of administration, listed as azvudine
  Tumor volume (mm^3) on the 27th day: 909 mm^3
[2]; 27th day of administration, azvudine 1 mg/kg, cyclophosphamide 50 mg/kg
  Tumor weight (g) (On the 27th day): 0.996 ± 0.143 g
[2]; [7]
  T/C (%): 30.64%
  TGI (%): 71.09%
[2]; based on tumor weight, 27th day, azvudine 1 mg/kg, cyclophosphamide 50 mg/kg
  T/Cweight (%): 33.38%
[3]; [8]
  T/C: 33.89
  TGI: 69.73%
  Tumor volume: 979 mm^3
[3]; 28th day of administration, SCID Beige mice, QD x 4 weeks, azvudine 2 mg/kg in Table 10, cyclophosphamide 50 mg/kg i.p., combination 1 + 50 mg/kg
  Tumor volume (mm^3) on the 28th day: 986 ± 179 mm^3
[3]; 28th day of administration, azvudine 1 mg/kg, cyclophosphamide 50 mg/kg, combination 1 + 50 mg/kg
  Tumor weight (g) (On the 28th day): 1.168 ± 0.145 g
[3]; [9]
  T/C (%): 33.55%
  TGI (%): 69.49%
[3]; based on tumor weight, 28th day, azvudine 1 mg/kg, cyclophosphamide 50 mg/kg, combination 1 + 50 mg/kg
  T/Cweight (%): 39.31%
[4]; 14th day of administration, listed as azvudine
  Tumor volume (mm^3) on the 14th day: 2253 mm^3
[4]; [10]
  T/C (%): 79.67%
  TGI (%): 18.22%
